Data from ChEMBL document CHEMBL4387728, “Synthetic glycopeptides reveal specific binding pattern and conformational change at O-mannosylated position of α-dystroglycan by POMGnT1 catalyzed GlcNAc modification” (Bioorg Med Chem, 2019).
Calls of active or inactive are those of the source. The calls are words filed in the database; no cut-off is given here. Peptide text beside a SMILES is read from it. * marks the point of attachment. X1 = CC(=O)N[C@H]1[C@H](O[C@H]2[C@@H](O)[C@H](O)[C@@H](CO)O[C@@H]2*)O[C@H](CO)[C@@H](O[C@@H]2O[C@H](CO)[C@H](O)[C@H](O[C@]3(C(=O)O)C[C@H](O)[C@@H](NC(C)=O)[C@H]([C@H](O)[C@H](O)CO)O3)[C@H]2O)[C@@H]1O; X2 = CC(=O)N[C@H]1[C@H](O[C@H]2[C@@H](O)[C@H](O)[C@@H](CO)O[C@@H]2*)O[C@H](CO)[C@@H](O[C@@H]2O[C@H](CO)[C@H](O)[C@H](O)[C@H]2O)[C@@H]1O; GlcNAc(β1-2)αMan = CC(=O)N[C@H]1[C@H](O[C@H]2[C@@H](O)[C@H](O)[C@@H](CO)O[C@@H]2*)O[C@H](CO)[C@@H](O)[C@@H]1O; Hexanoyl(5-oxo) = CC(=O)CCCC(=O)*

Key:
[1] = test system: Datura stramonium; assay: Binding affinity to biotin-labeled Datura stramonium agglutinin in pH 7.4 Tris buffer by fluorescence microarray method
[2] = organism: Homo sapiens; assay: Binding affinity to biotin-labeled human recombinant laminin-2 at 10 ug/ml in pH 7.4 Tris buffer by fluorescence microarray method
[3] = test system: Erythrina crista-galli; assay: Binding affinity to biotin-labeled Erythrina crista-galli agglutinin in pH 7.4 Tris buffer by fluorescence microarray method
[4] = target: Laminin subunit alpha-1 (Homo sapiens) (UniProt P25391); assay: Binding affinity to biotin-labeled human recombinant laminin-1 at 10 ug/ml in pH 7.4 Tris buffer by fluorescence microarray method
Chain of Laminin subunit alpha-1 (Homo sapiens) (P25391 whole entry): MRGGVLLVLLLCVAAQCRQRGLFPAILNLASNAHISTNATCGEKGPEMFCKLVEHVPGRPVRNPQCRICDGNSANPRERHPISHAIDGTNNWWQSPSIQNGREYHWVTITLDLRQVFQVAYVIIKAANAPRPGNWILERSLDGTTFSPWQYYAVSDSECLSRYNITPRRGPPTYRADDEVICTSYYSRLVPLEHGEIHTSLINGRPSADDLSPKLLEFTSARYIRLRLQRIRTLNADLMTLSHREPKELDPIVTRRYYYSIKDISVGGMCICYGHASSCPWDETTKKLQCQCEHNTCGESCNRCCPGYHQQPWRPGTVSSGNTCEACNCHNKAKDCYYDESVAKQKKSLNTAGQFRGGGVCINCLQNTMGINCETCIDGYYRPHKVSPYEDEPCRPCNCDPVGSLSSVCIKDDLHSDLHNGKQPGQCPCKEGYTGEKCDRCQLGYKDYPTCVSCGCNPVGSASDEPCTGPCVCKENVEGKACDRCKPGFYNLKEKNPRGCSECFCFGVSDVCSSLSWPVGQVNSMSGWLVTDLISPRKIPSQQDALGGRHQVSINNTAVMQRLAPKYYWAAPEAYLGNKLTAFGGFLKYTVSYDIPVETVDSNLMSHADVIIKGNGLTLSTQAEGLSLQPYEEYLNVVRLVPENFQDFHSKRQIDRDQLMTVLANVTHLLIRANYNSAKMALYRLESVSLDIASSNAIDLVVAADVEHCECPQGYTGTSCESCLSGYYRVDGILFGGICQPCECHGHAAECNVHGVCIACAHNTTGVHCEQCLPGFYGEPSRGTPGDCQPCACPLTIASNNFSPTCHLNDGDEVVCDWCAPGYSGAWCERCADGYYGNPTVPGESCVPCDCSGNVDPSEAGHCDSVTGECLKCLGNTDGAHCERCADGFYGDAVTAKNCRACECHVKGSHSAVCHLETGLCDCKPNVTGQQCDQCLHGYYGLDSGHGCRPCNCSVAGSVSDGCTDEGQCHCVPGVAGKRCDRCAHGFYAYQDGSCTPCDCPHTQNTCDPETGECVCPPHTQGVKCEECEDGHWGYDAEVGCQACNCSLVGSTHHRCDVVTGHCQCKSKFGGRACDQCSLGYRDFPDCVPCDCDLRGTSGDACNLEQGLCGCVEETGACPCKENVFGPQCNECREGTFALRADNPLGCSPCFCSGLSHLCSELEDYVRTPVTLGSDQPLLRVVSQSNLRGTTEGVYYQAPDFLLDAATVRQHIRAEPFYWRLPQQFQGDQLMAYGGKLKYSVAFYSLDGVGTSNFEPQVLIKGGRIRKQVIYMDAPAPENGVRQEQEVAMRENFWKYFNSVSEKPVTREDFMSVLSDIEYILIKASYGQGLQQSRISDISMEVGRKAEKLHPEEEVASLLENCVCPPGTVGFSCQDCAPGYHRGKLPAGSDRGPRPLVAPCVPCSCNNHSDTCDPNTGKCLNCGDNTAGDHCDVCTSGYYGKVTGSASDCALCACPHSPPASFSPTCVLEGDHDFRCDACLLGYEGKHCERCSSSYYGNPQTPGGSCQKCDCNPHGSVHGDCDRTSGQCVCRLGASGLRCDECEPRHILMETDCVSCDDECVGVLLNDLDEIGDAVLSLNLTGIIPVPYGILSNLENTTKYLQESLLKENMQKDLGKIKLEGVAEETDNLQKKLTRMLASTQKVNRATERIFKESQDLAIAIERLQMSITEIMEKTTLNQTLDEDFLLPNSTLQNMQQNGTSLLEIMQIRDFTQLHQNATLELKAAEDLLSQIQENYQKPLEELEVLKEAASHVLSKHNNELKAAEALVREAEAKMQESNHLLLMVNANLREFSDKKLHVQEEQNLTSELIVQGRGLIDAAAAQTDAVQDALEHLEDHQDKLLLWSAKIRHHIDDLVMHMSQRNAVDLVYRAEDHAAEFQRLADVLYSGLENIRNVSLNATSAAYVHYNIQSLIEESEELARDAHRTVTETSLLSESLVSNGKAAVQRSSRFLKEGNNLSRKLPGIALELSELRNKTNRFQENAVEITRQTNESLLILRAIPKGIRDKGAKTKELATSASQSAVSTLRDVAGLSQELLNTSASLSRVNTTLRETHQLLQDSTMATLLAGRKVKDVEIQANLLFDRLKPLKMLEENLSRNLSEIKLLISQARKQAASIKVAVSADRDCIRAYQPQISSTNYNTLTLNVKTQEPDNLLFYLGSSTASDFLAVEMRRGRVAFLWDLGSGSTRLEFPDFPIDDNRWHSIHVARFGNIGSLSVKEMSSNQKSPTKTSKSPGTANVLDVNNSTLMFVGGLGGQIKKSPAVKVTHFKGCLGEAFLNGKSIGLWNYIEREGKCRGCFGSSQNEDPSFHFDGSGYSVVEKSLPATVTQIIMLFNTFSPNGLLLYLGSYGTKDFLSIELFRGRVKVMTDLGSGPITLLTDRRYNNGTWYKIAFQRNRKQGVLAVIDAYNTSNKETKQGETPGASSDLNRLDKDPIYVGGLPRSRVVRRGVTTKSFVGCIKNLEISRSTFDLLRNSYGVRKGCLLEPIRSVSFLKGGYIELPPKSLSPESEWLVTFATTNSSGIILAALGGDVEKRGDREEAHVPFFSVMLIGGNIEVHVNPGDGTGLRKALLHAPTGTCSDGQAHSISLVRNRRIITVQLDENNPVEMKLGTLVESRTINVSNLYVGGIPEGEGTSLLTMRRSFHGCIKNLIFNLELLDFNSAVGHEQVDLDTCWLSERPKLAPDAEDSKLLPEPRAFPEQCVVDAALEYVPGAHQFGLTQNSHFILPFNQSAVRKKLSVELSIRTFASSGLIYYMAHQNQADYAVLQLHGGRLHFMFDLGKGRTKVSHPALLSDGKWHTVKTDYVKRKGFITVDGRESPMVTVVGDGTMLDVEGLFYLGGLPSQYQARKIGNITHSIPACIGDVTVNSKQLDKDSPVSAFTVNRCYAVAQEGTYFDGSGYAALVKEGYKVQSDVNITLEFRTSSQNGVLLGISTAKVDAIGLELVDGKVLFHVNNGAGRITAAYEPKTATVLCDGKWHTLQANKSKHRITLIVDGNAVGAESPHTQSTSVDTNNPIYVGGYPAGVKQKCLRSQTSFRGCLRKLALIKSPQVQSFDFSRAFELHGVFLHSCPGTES

[5] = test system: Triticum aestivum; assay: Binding affinity to biotin-labeled Wheat germ agglutinin in pH 7.4 Tris buffer by fluorescence microarray method
[6] = target: Lactotransferrin (Homo sapiens) (UniProt P02788); assay: Binding affinity to biotin-labeled lactoferrin (unknown origin) at 10 ug/ml in pH 7.4 Tris buffer by fluorescence microarray method
Chain of Lactotransferrin (Homo sapiens) (P02788 whole entry): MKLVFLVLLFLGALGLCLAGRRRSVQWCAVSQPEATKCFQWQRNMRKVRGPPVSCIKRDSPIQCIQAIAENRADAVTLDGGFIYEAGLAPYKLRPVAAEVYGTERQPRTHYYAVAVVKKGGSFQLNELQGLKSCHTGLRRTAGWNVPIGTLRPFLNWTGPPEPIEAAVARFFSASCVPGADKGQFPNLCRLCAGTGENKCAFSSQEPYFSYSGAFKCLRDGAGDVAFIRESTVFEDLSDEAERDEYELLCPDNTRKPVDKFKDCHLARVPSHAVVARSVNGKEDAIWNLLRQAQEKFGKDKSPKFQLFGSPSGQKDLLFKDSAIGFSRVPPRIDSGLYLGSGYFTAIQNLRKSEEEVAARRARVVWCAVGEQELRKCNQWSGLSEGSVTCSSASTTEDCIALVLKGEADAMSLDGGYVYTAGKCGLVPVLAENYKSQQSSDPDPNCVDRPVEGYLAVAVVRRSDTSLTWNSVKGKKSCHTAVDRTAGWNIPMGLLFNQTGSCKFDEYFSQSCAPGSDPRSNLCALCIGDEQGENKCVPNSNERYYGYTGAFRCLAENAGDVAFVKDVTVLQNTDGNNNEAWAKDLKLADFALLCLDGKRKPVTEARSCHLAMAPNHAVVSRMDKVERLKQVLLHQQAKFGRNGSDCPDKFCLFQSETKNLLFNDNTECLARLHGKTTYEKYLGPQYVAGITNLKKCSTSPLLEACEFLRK

[7] = organism: Homo sapiens; assay: Binding affinity to biotin-labeled human recombinant laminin-2 at 10 ug/ml in 5.6 MES buffer by fluorescence microarray method
[8] = test system: Canavalia ensiformis; assay: Binding affinity to biotin-labeled Canavalia ensiformis agglutinin in pH 7.4 Tris buffer by fluorescence microarray method
[9] = test system: Maackia amurensis; assay: Binding affinity to biotin-labeled Maackia amurensis agglutinin in pH 7.4 Tris buffer by fluorescence microarray method
[10] = Binding affinity to biotin-labeled Agaricus bisporus agglutinin in pH 7.4 Tris buffer by fluorescence microarray method
[11] = target: Lactotransferrin (Homo sapiens) (UniProt P02788); assay: Binding affinity to biotin-labeled lactoferrin (unknown origin) at 10 ug/ml in pH 5.6 MES buffer by fluorescence microarray method
[12] = test system: Arachis hypogaea; assay: Binding affinity to biotin-labeled Arachis hypogaea agglutinin in pH 7.4 Tris buffer by fluorescence microarray method
[13] = test system: Sambucus racemosa subsp. sieboldiana; assay: Binding affinity to biotin-labeled Sambucus sieboldiana agglutinin in pH 7.4 Tris buffer by fluorescence microarray method
[14] = target: Laminin subunit alpha-1 (Homo sapiens) (UniProt P25391); assay: Binding affinity to biotin-labeled human recombinant laminin-1 at 10 ug/ml in pH 5.6 MES buffer by fluorescence microarray method

Structure (SMILES): CC[C@H](C)[C@H](NC(=O)[C@H](C)NC(=O)CNC(=O)[C@H](CCCNC(=N)N)NC(=O)[C@@H](NC(=O)CCCC(C)=O)[C@@H](C)O)C(=O)N[C@H](C(=O)N[C@@H](CCC(N)=O)C(=O)N[C@H](C(=O)N1CCC[C@H]1C(=O)N[C@H](C(=O)N[C@@H](CC(C)C)C(=O)NCC(=O)N1CCC[C@H]1C(=O)N[C@H](C(=O)N[C@@H](CCC(N)=O)C(=O)N1CCC[C@H]1C(=O)N[C@H](C(=O)N[C@@H](CCCNC(=N)N)C(=O)N[C@H](C(N)=O)C(C)C)[C@@H](C)O[C@H]1O[C@H](CO)[C@@H](O)[C@H](O)[C@@H]1O[C@@H]1O[C@H](CO)[C@@H](O[C@@H]2O[C@H](CO)[C@H](O)[C@H](O)[C@H]2O)[C@H](O)[C@H]1NC(C)=O)[C@@H](C)CC)[C@@H](C)O)[C@@H](C)O[C@H]1O[C@H](CO)[C@@H](O)[C@H](O)[C@@H]1O[C@@H]1O[C@H](CO)[C@@H](O[C@@H]2O[C@H](CO)[C@H](O)[C@H](O)[C@H]2O)[C@H](O)[C@H]1NC(C)=O)[C@@H](C)CC ({Hexanoyl(5-oxo)}-TRGAIIQT(X2)PTLGPIQPT(X2)RV-NH2)
- Activity [1]: inactive
- Activity [2]: inactive
- Activity [3]: Active
- Activity [4]: Active
- Activity [5]: Active
- Activity [6]: inactive
- Activity [7]: Active
- Activity [8]: Active
- Activity [9]: inactive
- Activity [10]: Active
- Activity [11]: Active
- Activity [12]: Active
- Activity [13]: Active
- Activity [14]: Active

Structure (SMILES): CC[C@H](C)[C@H](NC(=O)[C@H](C)NC(=O)CNC(=O)[C@H](CCCNC(=N)N)NC(=O)[C@@H](NC(=O)CCCC(C)=O)[C@@H](C)O)C(=O)N[C@H](C(=O)N[C@@H](CCC(N)=O)C(=O)N[C@H](C(=O)N1CCC[C@H]1C(=O)N[C@H](C(=O)N[C@@H](CC(C)C)C(=O)NCC(=O)N1CCC[C@H]1C(=O)N[C@H](C(=O)N[C@@H](CCC(N)=O)C(=O)N1CCC[C@H]1C(=O)N[C@H](C(=O)N[C@@H](CCCNC(=N)N)C(=O)N[C@H](C(N)=O)C(C)C)[C@@H](C)O[C@H]1O[C@H](CO)[C@@H](O)[C@H](O)[C@@H]1O[C@@H]1O[C@H](CO)[C@@H](O[C@@H]2O[C@H](CO)[C@H](O)[C@H](O[C@]3(C(=O)O)C[C@H](O)[C@@H](NC(C)=O)[C@H]([C@H](O)[C@H](O)CO)O3)[C@H]2O)[C@H](O)[C@H]1NC(C)=O)[C@@H](C)CC)[C@@H](C)O)[C@@H](C)O[C@H]1O[C@H](CO)[C@@H](O)[C@H](O)[C@@H]1O[C@@H]1O[C@H](CO)[C@@H](O[C@@H]2O[C@H](CO)[C@H](O)[C@H](O[C@]3(C(=O)O)C[C@H](O)[C@@H](NC(C)=O)[C@H]([C@H](O)[C@H](O)CO)O3)[C@H]2O)[C@H](O)[C@H]1NC(C)=O)[C@@H](C)CC ({Hexanoyl(5-oxo)}-TRGAIIQT(X1)PTLGPIQPT(X1)RV-NH2)
- Activity [1]: inactive
- Activity [2]: inactive
- Activity [3]: Active
- Activity [4]: Active
- Activity [5]: Active
- Activity [6]: inactive
- Activity [7]: Active
- Activity [8]: Active
- Activity [9]: inactive
- Activity [10]: Active
- Activity [11]: Active
- Activity [12]: Active
- Activity [13]: Active
- Activity [14]: Active

Structure (SMILES): CC[C@H](C)[C@H](NC(=O)[C@H](C)NC(=O)CNC(=O)[C@H](CCCNC(=N)N)NC(=O)[C@@H](NC(=O)CCCC(C)=O)[C@@H](C)O)C(=O)N[C@H](C(=O)N[C@@H](CCC(N)=O)C(=O)N[C@H](C(=O)N1CCC[C@H]1C(=O)N[C@H](C(=O)N[C@@H](CC(C)C)C(=O)NCC(=O)N1CCC[C@H]1C(=O)N[C@H](C(=O)N[C@@H](CCC(N)=O)C(=O)N1CCC[C@H]1C(=O)N[C@H](C(=O)N[C@@H](CCCNC(=N)N)C(=O)N[C@H](C(N)=O)C(C)C)[C@@H](C)O[C@H]1O[C@H](CO)[C@@H](O)[C@H](O)[C@@H]1O[C@@H]1O[C@H](CO)[C@@H](O)[C@H](O)[C@H]1NC(C)=O)[C@@H](C)CC)[C@@H](C)O)[C@@H](C)O[C@H]1O[C@H](CO)[C@@H](O)[C@H](O)[C@@H]1O[C@@H]1O[C@H](CO)[C@@H](O)[C@H](O)[C@H]1NC(C)=O)[C@@H](C)CC ({Hexanoyl(5-oxo)}-TRGAIIQT(GlcNAc(β1-2)αMan)PTLGPIQPT(GlcNAc(β1-2)αMan)RV-NH2)
- Activity [1]: inactive
- Activity [2]: inactive
- Activity [3]: Active
- Activity [4]: Active
- Activity [5]: Active
- Activity [6]: inactive
- Activity [7]: Active
- Activity [8]: Active
- Activity [9]: inactive
- Activity [10]: Active
- Activity [11]: Active
- Activity [12]: Active
- Activity [13]: Active
- Activity [14]: Active

Structure (SMILES): CC[C@H](C)[C@H](NC(=O)[C@H](C)NC(=O)CNC(=O)[C@H](CCCNC(=N)N)NC(=O)[C@@H](NC(=O)CCCC(C)=O)[C@@H](C)O)C(=O)N[C@H](C(=O)N[C@@H](CCC(N)=O)C(=O)N[C@H](C(=O)N1CCC[C@H]1C(=O)N[C@H](C(=O)N[C@@H](CC(C)C)C(=O)NCC(=O)N1CCC[C@H]1C(=O)N[C@H](C(=O)N[C@@H](CCC(N)=O)C(=O)N1CCC[C@H]1C(=O)N[C@H](C(=O)N[C@@H](CCCNC(=N)N)C(=O)N[C@H](C(N)=O)C(C)C)[C@@H](C)O[C@H]1O[C@H](CO)[C@@H](O)[C@H](O)[C@@H]1O[C@@H]1O[C@H](CO)[C@@H](O)[C@H](O)[C@H]1NC(C)=O)[C@@H](C)CC)[C@@H](C)O[C@H]1O[C@H](CO)[C@@H](O)[C@H](O)[C@@H]1O[C@@H]1O[C@H](CO)[C@@H](O[C@@H]2O[C@H](CO)[C@H](O)[C@H](O)[C@H]2O)[C@H](O)[C@H]1NC(C)=O)[C@@H](C)O)[C@@H](C)CC ({Hexanoyl(5-oxo)}-TRGAIIQTPT(X2)LGPIQPT(GlcNAc(β1-2)αMan)RV-NH2)
- Activity [1]: inactive
- Activity [2]: inactive
- Activity [3]: Active
- Activity [4]: Active
- Activity [5]: Active
- Activity [6]: inactive
- Activity [7]: Active
- Activity [8]: Active
- Activity [9]: inactive
- Activity [10]: Active
- Activity [11]: Active
- Activity [12]: Active
- Activity [13]: Active
- Activity [14]: Active

Structure (SMILES): CC[C@H](C)[C@H](NC(=O)[C@H](C)NC(=O)CNC(=O)[C@H](CCCNC(=N)N)NC(=O)[C@@H](NC(=O)CCCC(C)=O)[C@@H](C)O)C(=O)N[C@H](C(=O)N[C@@H](CCC(N)=O)C(=O)N[C@H](C(=O)N1CCC[C@H]1C(=O)N[C@H](C(=O)N[C@@H](CC(C)C)C(=O)NCC(=O)N1CCC[C@H]1C(=O)N[C@H](C(=O)N[C@@H](CCC(N)=O)C(=O)N1CCC[C@H]1C(=O)N[C@H](C(=O)N[C@@H](CCCNC(=N)N)C(=O)N[C@H](C(N)=O)C(C)C)[C@@H](C)O)[C@@H](C)CC)[C@@H](C)O[C@H]1O[C@H](CO)[C@@H](O)[C@H](O)[C@@H]1O[C@@H]1O[C@H](CO)[C@@H](O[C@@H]2O[C@H](CO)[C@H](O)[C@H](O)[C@H]2O)[C@H](O)[C@H]1NC(C)=O)[C@@H](C)O[C@H]1O[C@H](CO)[C@@H](O)[C@H](O)[C@@H]1O[C@@H]1O[C@H](CO)[C@@H](O[C@@H]2O[C@H](CO)[C@H](O)[C@H](O)[C@H]2O)[C@H](O)[C@H]1NC(C)=O)[C@@H](C)CC ({Hexanoyl(5-oxo)}-TRGAIIQT(X2)PT(X2)LGPIQPTRV-NH2)
- Activity [1]: inactive
- Activity [2]: inactive
- Activity [3]: Active
- Activity [4]: Active
- Activity [5]: Active
- Activity [6]: inactive
- Activity [7]: Active
- Activity [8]: Active
- Activity [9]: inactive
- Activity [10]: Active
- Activity [11]: Active
- Activity [12]: Active
- Activity [13]: Active
- Activity [14]: Active

Structure (SMILES): CC[C@H](C)[C@H](NC(=O)[C@H](C)NC(=O)CNC(=O)[C@H](CCCNC(=N)N)NC(=O)[C@@H](NC(=O)CCCC(C)=O)[C@@H](C)O)C(=O)N[C@H](C(=O)N[C@@H](CCC(N)=O)C(=O)N[C@H](C(=O)N1CCC[C@H]1C(=O)N[C@H](C(=O)N[C@@H](CC(C)C)C(=O)NCC(=O)N1CCC[C@H]1C(=O)N[C@H](C(=O)N[C@@H](CCC(N)=O)C(=O)N1CCC[C@H]1C(=O)N[C@H](C(=O)N[C@@H](CCCNC(=N)N)C(=O)N[C@H](C(N)=O)C(C)C)[C@@H](C)O)[C@@H](C)CC)[C@@H](C)O)[C@@H](C)O[C@H]1O[C@H](CO)[C@@H](O)[C@H](O)[C@@H]1O[C@@H]1O[C@H](CO)[C@@H](O[C@@H]2O[C@H](CO)[C@H](O)[C@H](O)[C@H]2O)[C@H](O)[C@H]1NC(C)=O)[C@@H](C)CC ({Hexanoyl(5-oxo)}-TRGAIIQT(X2)PTLGPIQPTRV-NH2)
- Activity [1]: inactive
- Activity [2]: inactive
- Activity [3]: Active
- Activity [4]: Active
- Activity [5]: Active
- Activity [6]: inactive
- Activity [7]: Active
- Activity [8]: Active
- Activity [9]: inactive
- Activity [10]: Active
- Activity [11]: Active
- Activity [12]: Active
- Activity [13]: Active
- Activity [14]: Active
